Patent US3958011A, “Compositions of tri-n-propylacetic acid and salts thereof and treatment of neurological disorders with such compositions” (priority 1972, dated 1976)

Columns and labels:
mice [1] = experiment: Chimney test (tranquillizing properties); format: in vivo; conditions: Mus musculus, ip; 50% failed to get out of the test-tube within 30 seconds
Procedure: This test enables two groups of factors to be evaluated namely neuromuscular factors (muscular strength, agility, coordination of movements) and psychological factors (curiosity, fright, flight instinct).
It was carried out on batches of 10 mice weighing about 25 g each. The compound to be studied was given to each batch by intraperitoneal route so that each batch received a higher dose than the preceding batch. The mice were placed, one after another, head first in a test-tube 30 cm long and calibrated in accordance with the size of the mouse so that by moving backwards the animal could get out of the tube in less than 30 seconds. The number of animals which were unable to do this was noted.

mouse = experiment: Acute toxicity (LD50), technique of Karber and Behrens; conditions: intraperitoneal LD50, in words
Procedure: (§1) The LD50 was determined on the mouse by intraperitonel route using the technique of KARBER and BEHRENS.

[2] = as above; conditions: mouse, in vivo, ip
Procedure: as §1

[3] = Rota rod test (neurotoxicity); format: in vivo; conditions: mouse, ip, mice, intraperitoneal, 30 min after administration, read-out: NTD50 (neurotoxic dose 50) in the rota rod test
Procedure: The test used was that known as the rota rod test (BOISSIER-Therapie 1958, XIII, pp. 1074-1118). This test aims at enabling the animals' ability to coordinate their movements to be evaluated. It is carried out on batches of 10 mice each weighing about 25 g. The compound to be tested is administered by intraperitoneal route to the animals of each batch so that each batch receives a higher dose than that given to the preceding batch. Thirty minutes after administration, the mice are placed for two minutes on a wooden roller of 4.8 cm diameter which turns at the rate of 4 revolutions per minute. The roller has a rough surface to prevent the animals from slipping.
By this means, the neurotoxic dose 50 (NTD 50) can be determined, i.e. the dose of the compound with which one half of the animals can no longer stay on the roller during the period of time fixed as the reference period.
In order to obtain an activity index figure 30 minutes after administration the rota rod test described above was also performed using for comparison a known myorelaxant, namely mephenesin.

mice [4] = experiment: Pentylenetetrazol-induced seizure (anticonvulsant action); format: in vivo, mice (OF 1); conditions: Mus musculus, ip, i.p., 125 mg/kg pentylenetetrazol i.p.
Procedure: The purpose of this test which is carried out on mice is to determine whether the compounds of the invention, when given preventively by intraperitoneal route, are capable at certain doses of protecting some of the animals against the epileptic seizure produced by an adequate and predetermined dose of pentylenetetrazol which would be 100% fatal in the absence of the compound. The test was carried out on batches of 10 male OF 1 mice weighing about 25 g.

rats = experiment: Anoxic seizure induced by gallamine triiodoethylate (antianoxic properties); format: in vivo, rats (OFA); conditions: 2 millimols/kg
Text: The injection of a sufficient dose of a synthetic curariform substance such as gallamine triiodoethylate provokes in the rat paralysis of the diaphragm. The animal then dies by asphyxia.
Male rats of the OFA strain and weighing about 250 g. were first anesthetized with ether in order to enable tracheotomy to be performed and cortical electrodes to be inserted. Each rat was then maintained under conditions of artificial respiration by means of an appropriate apparatus and a paralysing dose of gallamine triiodoethylate was administered by intraperitoneal route to eliminate spontaneous breathing. The electrocorticogram, the electrocardiogram and the rectal temperature were registered. After a period of 30 minutes during which stabilization of the registrations was obtained the animal was treated with 2 millimols/kg of an oily solution of tri-n-propylacetic acid or an aqueous solution of one of its alkali metal salts. The artificial respiratory apparatus was stopped 5 minutes after treatment and note was taken of the cardiac frequency every 10 seconds as well as of the period of time between the stopping of the apparatus and the appearance of the flat tracing on the electrocorticogram. This period of time represents the period of survival of the animal. The value of the cardiac frequency corresponding to moment of appearance of the flat tracing was calculated by extrapolation.
The same test was performed on control animals but without administration of a compound of the invention.

mice [5] = experiment: Posture reflex (hypnotic properties); format: in vivo, mice (OF 1); conditions: Mus musculus, ip, i.p., read-out: HD50, loss of posture reflex
Procedure: Male mice of the OF 1 strain, weighing about 25 g. were divided into batches of 10. The animals of each batch were given an intraperitoneal dose of the compound to be studied so that each batch received a higher dose than the preceding batch.
The numbers of animals which lost the reflex at various times after administration were noted.
In this way, the HD50 at different times after administration was determined i.e. the dose of the compound under study which caused 50% of the animals to lose the posture reflex at a given time after administration.

mice [6] = experiment: Hole-board test (tranquillizing properties); format: in vivo, mice (OF 1); conditions: for Total number of holes explored: batch of 10
Procedure: This test enables a quantitative evaluation to be made of the exploring capabilities of mice in relation to their curiosity. The material comprises a board 40 cm × 40 cm and 1.7 cm thick in which 16 holes, 3 cm in diameter, have been cut. The board is placed upon four legs sufficiently high (1.5 m) for the holes to appear bottomless to the animals. The experiment is carried out in as great a silence as possible.
The test was performed on batches of 10 male OF 1 mice weighing about 23 g. The animals of each batch were given an intraperitoneal dose of the compound to be tested so that each batch received a higher dose than the preceding batch. […] Thirty minutes after administration, each batch was placed in the middle of the board and the total number of holes explored by each batch was noted every minute for 5 minutes.

mice [7] = experiment: Maximum electroshock seizure (anticonvulsant action); format: in vivo, mice (OF 1)
Procedure: This seizure is characterized in the mouse by extension of the back paws for 5 to 10 seconds. The extension is similar to that observed during the tonicoclonic seizures provoked by chemical convulsants such as pentylenetetrazol or strychnine.
The test was carried out on batches of 10 mice of the OF 1 strain weighing about 22 g. […] Fifteen minutes later, each animal received an electric shock of twice threshold intensity (about 60 volts).
This latter value is indicated by the symbol HD50 or hypnotic dose 50 and the efficacy index by the fraction: [formula]

[8] = 0.25 h, 15 min. after administration
[9] = 0.5 h, 30 min. after administration

Which results are given for CCCC(CCC)(CCC)C(=O)[O-].[Na+] [Sodium tri-n-propylacetate, sodium tri-n-propylacetate]?
ED50 (mice [1]): 72 mg/kg; Acute toxicity compared with diazepam (mouse): much less toxic than diazepam; LD50 [2]: 327 mg/kg; selectivity ratio [2]: 20 to 80; TD50 at 0.5 h [3]: 120 mg/kg; ED50 (mice [4]; 0.125 h, 7 min. 30 sec after administration): 78 mg/kg; ED50 (mice [4]; [8]): 66 mg/kg; ED50 (mice [4]; [9]): 110 mg/kg; Increase of period of survival versus controls (rats): 19%; Period of survival (rats; controls 74.3 ± 2.3): 87.9 ± 3.7 s; Cardiac frequency when the flat tracing appears (rats; controls 150, calculated by extrapolation): 109; ED50 (mice [5]; [8]): 120 mg/kg; ED50 (mice [5]; [9]): 130 mg/kg; ED50 (mice [5]; 0.75 h, 45 min. after administration): 150 mg/kg; ED50 (mice [5]; 1 h, 60 min. after administration): 200 mg/kg; Total number of holes explored (mice [6]; 50 mg/kg i.p., 1 min.): 15; Total number of holes explored (mice [6]; 50 mg/kg i.p., 2 min.): 13; Total number of holes explored (mice [6]; 50 mg/kg i.p., 3 min.): 14; Total number of holes explored (mice [6]; 50 mg/kg i.p., 4 min.): 19; Total number of holes explored (mice [6]; 50 mg/kg i.p., 5 min.): 17; Total number of holes explored (mice [6]; 75 mg/kg i.p., 1 min.): 2; Total number of holes explored (mice [6]; 75 mg/kg i.p., 2 min.): 6; Total number of holes explored (mice [6]; 75 mg/kg i.p., 3 min.): 3; Total number of holes explored (mice [6]; 75 mg/kg i.p., 4 min.): 1; Total number of holes explored (mice [6]; 75 mg/kg i.p., 5 min.): 7; Effect on the animals' curiosity (mice [6]; hole-board test, in words): tends to reduce the animals' curiosity; ED50 (mice [7]; Mus musculus, ip, 0.25 h, i.p., 15 min after administration, protection of 50% against tonic seizures): 130 mg/kg; Efficacy index (HD50 compared with ED50) (mice [7]; electroshock ED50 versus hypnotic dose 50): 1.0
